What all share (experiment): growth of human tumour cells (NCI), 48 h
The subject of experiment [1] is NCI/ADR-RES ovarian.
Experiment [2] has as its system UO-31 renal.
Experiment [3] deals with HOP-92 NSCLC.
The test system of experiment [4] is LOX IMVI melanoma.
Experiment [5] deals with T-47D breast.
The subject of experiment [6] is SK-MEL-28 melanoma.
Experiment [7] concerns RXF 393 renal.
The test system of experiment [8] is SNB-19 CNS.
Experiment [9] concerns ACHN renal.
In experiment [10] the test system is MOLT-4 leukemia.

Structures are written as SMILES. Several values for one entry are separate records, joined by “and”; a condition that tells them apart may be missing. Equal values may be shown once.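 A five-concentration, 48-hour dose response in 96-well plates underlies each endpoint, interpolated linearly between surrounding concentrations. At the GI50, growth is halved. Definition used: TGI = concentration required for complete inhibition of growth.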

Regarding `Nc1ccccc1C#CC#Cc1ccccc1N`, the GI50 in experiment [1] is 4.63 µM; in experiment [2] it was 8 µM; in [3], 1.37 µM; in experiment [4] it was 6.78 µM; in experiment [5], over 100 µM; in [6], 48 µM. Also, the GI50 was 25.6 µM in experiment [7], over 100 µM in experiment [8], 10.6 µM in experiment [9] and 16.3 µM in experiment [10]. Further, the TGI was 29.7 µM in [1]; over 100 µM in [2]; 96.7 µM in experiment [3]; 19.4 µM in experiment [4]; over 100 µM in [5]; over 100 µM in [6]. The TGI in [7] is 67.7 µM; in experiment [8], over 100 µM; in experiment [9], 22.9 µM; in experiment [10], over 100 µM.
For `CCNC(=O)C[C@@H]1N=C(c2ccc(Cl)cc2)c2cc(OC)ccc2-n2c(C)nnc21`, the GI50 in [1] was over 56 µM; in experiment [2], 0.659 µM; in experiment [3], 0.548 µM; in [4] it was 0.844 µM; in experiment [5] it was 2.9 µM; in [6], 11.2 µM. The GI50 in experiment [7] is 8.9 µM; in [8] it was 5.11 µM; in experiment [9], 7.4 µM; in experiment [10], over 44.2 µM. Further, the TGI in experiment [1], in experiment [2], in experiment [3], in experiment [4], in experiment [5] and in experiment [6] was over 100 µM throughout. The TGI in experiment [7], in experiment [8], in experiment [9] and in [10] was over 100 µM in each case.
Consider `COc1ccc(C(=O)/C=C/c2ccc(O)c(O)c2F)c(OC)c1`, for which the GI50 in experiment [1] was 4.16 µM; in experiment [2], 7.04 µM; in experiment [3], 36 µM; in experiment [4], 4.95 µM; in [5], 3.21 µM; in [6], 11.6 µM. The GI50 is 11.6 µM in [7], 10.7 µM in experiment [8], 5.49 µM in experiment [9] and 0.259 µM in [10]. Besides, the TGI in experiment [1] was 67.7 µM and > 100 µM; in experiment [2] it was 16.3 µM and 38.4 µM; in experiment [3], 75 µM and > 100 µM; in experiment [4] it was 20.3 µM and 20.4 µM; in experiment [5] it was 75 µM and > 100 µM; in [6], 33.4 µM and 30.7 µM. Moreover, the TGI in experiment [7] was 26.4 µM and 32.1 µM; in [8] it was 19 µM and 26.1 µM; in [9] it was 25.6 µM and > 100 µM; in [10], 75 µM and 11.6 µM.
For `COc1cc2oc(=O)cc(C)c2cc1[N+](=O)[O-]`, the TGI in experiment [1] was over 79.3 µM; in [2], over 87.6 µM; in [3] it was 57.1 µM; in [4] it was 28.6 µM; in [5] it was 77.2 µM; in experiment [6], 64.6 µM. Moreover, the TGI was 33.8 µM in [7], over 100 µM in experiment [8], over 100 µM in [9] and 60.9 µM in experiment [10].
Turning to `CCn1c(=O)c(-c2ccn[nH]2)cc2c(C)nc(N)nc21`, the GI50 in [1] was 1.4 µM; in experiment [2], 0.291 µM; in experiment [3], 0.213 µM; in experiment [4], 1.73 µM; in experiment [5], 0.173 µM; in [6] it was 0.97 µM. Also, the GI50 was 0.426 µM in experiment [7], 4.57 µM in [8], 1.49 µM in experiment [9] and 0.846 µM in [10]. The TGI in experiment [1] was over 100 µM; in experiment [2], 3.72 µM; in experiment [3], 1.56 µM; in [4], 14.4 µM; in experiment [5], 0.748 µM; in experiment [6], 6.13 µM. Further, the TGI in experiment [7] is 2.47 µM; in experiment [8], over 100 µM; in experiment [9], over 100 µM; in [10], 51 µM.
As for `CC(C)C[C@@H](NC(=O)[C@@H](Cc1ccccc1)NC(=O)c1cnccn1)B1O[C@H]2[C@H](O)[C@@H](C(=O)NCCCC[C@@H]3NC(=O)[C@@H](Cc4ccccc4)NC(=O)[C@H](CC(=O)O)NC(=O)CNC(=O)[C@H](CCCN=C(N)N)NC3=O)O[C@@H](CN)[C@H]2O1`, the GI50 in experiment [1] is 0.0984 µM and 0.0844 µM; in experiment [2], 0.00868 µM and 0.005 µM; in experiment [3], 0.0108 µM and 0.00548 µM; in [4], 0.00397 µM and 0.005 µM; in [5] it was 0.00598 µM and 0.005 µM; in experiment [6] it was 0.00766 µM and 0.005 µM. Further, the GI50 in [7] is 0.00345 µM and < 0.005 µM; in experiment [8], 0.0136 µM and 0.005 µM; in experiment [9], 0.00449 µM and 0.005 µM; in experiment [10] it was 0.00274 µM. In addition, the TGI in experiment [1] was 0.586 µM; in [2] it was 0.089 µM and 0.036 µM; in experiment [3], 0.0565 µM and 0.0236 µM; in [4], 0.0159 µM and 0.0058 µM; in [5] it was 0.0648 µM and 0.025 µM; in experiment [6] it was 0.285 µM and 0.235 µM. Also, the TGI was 0.0135 µM and < 0.005 µM in [7]; 5.12 µM in experiment [8]; 0.494 µM and 0.153 µM in [9]; 0.00931 µM in [10].

The values are drawn from PubChem BioAssay (NCI).
